Patent US11617708B2, “Cosmetic composition capable of strengthening epidermal tight junctions for the prevention and/or treatment of atopic dermatitis” (NAOS INSTITUTE OF LIFE SCIENCE, priority 2020, dated 2023)

Tested on: claudin-1
Experiment: Expression of claudin-1 by in situ immunolabelling in an in vitro cell model of atopic dermatitis (calcium-differentiated keratinocytes inhibited by alarmins)
Type: cell-based, human
Procedure: • cell type: normal human epidermal keratinocytes (NHEK; reference: Bioalternatives K34 1), used at 3rd passage—culture conditions: 37° C., 5% CO2 • culture medium: Keratinocyte-SFM complemented with Epidermal Growth Factor (or EGF) at a concentration of 0.25 ng/mL, pituitary extract (PE) at a concentration of 25 μg/mL and gentamycin at a concentration of 25 μg/mL • assay medium used for this example: Keratinocyte-SFM complemented with gentamycin at a concentration of 25 μg/mL. […]
For each condition, the analysis was carried out from 30 image quantifications (n=30) except for the control conditions produced from 60 image quantifications (n=60). A first evaluation of the results was carried out by taking all of the quantifications into account, then a second solely with the results with replicated cultures, i.e. with 3 replications (n=3), except for the control conditions which were carried out with 6 replications (n=6). […]
Labelling was quantified by measuring the intensity of fluorescence of the proteins with respect to the total number of cells identified by staining with bis-benzimide (integration of digital data by the Developer Toolbox 1.5 software, GE Health Care).
The intergroup comparisons were carried out with the aid of the bilateral unpaired Student t-assay. […] However, for n<5, the calculated data were provided by way of indication only. […]

Compound	effect on the expression of claudin-1 (% with respect to T+, inhibited control = 100%) (NHEK differentiated with CaCl2 0.75 mM, compounds 1 h before alarmins (histamine 50 μM, IL-33 100 ng/mL, IL-1β 100 ng/mL), 72 h, arginine 0.02-0.2%, glycosylceramides 0.0003-0.003%, FIG. 1)	expression of claudin-1 after differentiation with CaCl2 (NHEK, CaCl2 0.75 mM, without alarmins, versus not stimulated/not differentiated control)
N=C(N)NCCC[C@H](N)C(=O)O [arginine]	significantly reversed the inhibiting effect of the mixture of alarmins on the expression of claudin-1	–
[Ca+2].[Cl-].[Cl-] [CaCl2]	–	induced an increase in the expression of the analysed tight junctions protein (claudin-1)
